The test system of series [1] is equine arteritis virus (EAV). The series can be described thus: Effect on equine arteritis virus infection (Example 6). Format: cell-based. How it is done:
Experiments were carried out to determine whether tylvalosin has an effect on equine arteritis virus (EAV).

Another series relates to HRT-18 cells. In words: Intracellular accumulation of macrolides in HRT-18 cells. In kind it is in vitro ADME, human. Particulars: for average intracellular concentration / intracellular:extracellular ratio: 10 μg/mL antibiotic. The procedure:
HRT-18 cells, in 6 cm tissue cultures dishes, were incubated in the presence of 0.5, 5 or 50 μg/mL tylvalosin. After 4 h, two dishes for each tylvalosin concentration and two dishes without antibiotic were removed from the incubator. A sample of medium (about 1 mL) was removed, placed in a labelled Eppendorf tube and stored at −20° C. The rest of the medium was then removed. Each of the cell monolayers was washed twice in PBS, using approximately 5 mL for each wash. The plunger from a 2 mL plastic syringe was used to gently scrape off the cells. PBS (500 μL) was added to the dish and the cells gently removed into this medium, using a micropipette. The sample was then placed in an Eppendorf tube and centrifuged at 8000×g in a bench centrifuge (Biofuge pico, Heraeus instruments) for 13 sec. An obvious cell pellet formed. The supernatant was removed using a micropipette and the cell material was stored at −20° C. in a labelled Eppendorf tube. After approximately 24 h the remaining tissue culture dishes were removed from the incubator and treated as described above for the 4 h samples. All the samples, including the 4 h samples, were then stored at −70° C.
HRT-18 cells were prepared as described above and used at passage 42. Stock solutions of antibiotics (either tylvalosin, tylosin or tilmicosin) were diluted in growth media and 10 μg/mL each antibiotic was added to the confluent cell monolayers. The cells were incubated at 37° C. in a 5% CO2 atmosphere for either 4 h or 24 h. The media and cells were harvested and tested for antibiotic, as described above.
All the supernatant and cell samples were transported frozen (at approximately −20° C.) to York Bioanalytical Solutions (York, England) for analysis. Briefly, 0.25 g of buffer (RPMI medium containing 10% FCS) was weighed into a polypropylene tube. A 50 μL volume of the appropriate working solution was added to the quality control (QC) samples. Methanol (50 μL) was added to each blank sample used for preparation of calibration standards, recovery samples and reagent blanks. A 2.5 mL volume of 0.1 M phosphate buffer was added to each sample, vortex mixed for approximately 1 min and then centrifuged at 3220×g for 10 min at 4° C.
For the liquid-liquid clean-up phase, an aliquot (100 μL) of the supernatant was transferred to a polypropylene tube. The pH was adjusted to pH 8-8.5 by the addition of 0.1 M NaOH, and vortex mixed. Ethyl acetate (5 mL) was added and after capping, the whole mixture was shaken for 10 min and then centrifuged at 3220×g for 10 min at 4° C.
Ammonium acetate (20 mM; pH native)—formic acid, 1000:3, v/v (100 μL) was added to each well in a 2 mL polypropylene collection plate. An aliquot of the ethyl acetate mixture (100 μL) was transferred to the polypropylene collection plate and evaporated under nitrogen (40° C.) until the ethyl acetate was fully evaporated whilst the ammonium acetate remained. Methanol (100 μL) was added to each well, excluding the calibration standards.
To each well containing a calibration standard, 100 μL of the appropriate calibration working solution was added. Samples were then vortex mixed for at least 10 min and submitted for liquid chromatography with tandem mass spectrometric analysis. The method stated was applicable to the samples of media (and the calibration standards and quality control samples).
For the cells, the sample tubes were weighed, and 100 μL of acetonitrile was added. The samples were vortex mixed for 10 sec, then centrifuged at 10285×g at 4° C. for 5 min. The sample was transferred to a polypropylene tube. The original sample tube was washed with 0.1 M phosphate buffer (1 mL). This was transferred to the polypropylene tube. A second wash of 1 mL was made, then a final wash of 0.5 mL. The polypropylene tube was now at the same stage as the end of the liquid extraction, but with the cells present rather than media. This was then taken through the sample preparation as described above. […]

In another series the test system is PRRSV. The series can be described thus: Inhibitors of PRRSV infection added at various times pre and post infection (Example 7). In kind it is cell-based.
The subject of a further series is endosomal pH. The series can be described thus: Acridine orange assay of endosomal pH (Example 13). In kind it is cell-based. The procedure:
Acridine orange is a dye that causes cells to fluoresce green with the exception of acidic compartments (such as endosomes) that appear red—due to the protonation of the dye and quenching of the green fluorescence. A substance that raises the endosomal pH will prevent the appearance of the red fluorescence. The effect of Aivlosin® and other macrolide antibiotics on a the staining of endosomes by acridine orange in number of cells lines was determined (see FIG. 19). An area of cells grown on a glass coverslip is first selected using a DAPI stain. […] This selection procedure helps reduce any bias in the results. The green and red filters on the epifluorescence microscope were then used to examine about 20 cells. The number of red spots (endosome vesicles) in was determined. The average number of Acridine orange stained endosomes was counted.

In series [2] the test system is human Udorn strain of influenza. The series can be described thus: Influenza infection of MDCK cells, immunofluorescence (Example 4), strain Udorn. Particulars: 1 μg/ml, 4 h pretreatment, moi 10, fixed 4 h post infection. In kind it is cell-based.
The subject of series [3] is equine influenza strain Miami. In kind it is cell-based. The settings on record: 1 μg/ml, 4 h pretreatment, moi 10, fixed 4 h post infection.
The mark [4] stands for this setting: added 2 or 4 hours after infection.

As to `CCC1OC(=O)CC(OC(C)=O)C(C)C(OC2OC(C)C(OC3CC(C)(O)C(OC(=O)CC(C)C)C(C)O3)C(N(C)C)C2O)C(CC=O)CC(C)C(=O)C=CC(C)=CC1COC1OC(C)C(O)C(OC)C1OC` (stereo not drawn) [tylvalosin, 3-O acetyl-4″-O-isovaleryltylosin], the EAV infection result in series [1] is “not blocked”. For the same compound, the average intracellular concentration with HRT-18 cells (HRT-18 cells, 4 h) turned out to be 61.8 μg/mg cells; in the series with HRT-18 cells (HRT-18 cells, 24 h) it was 57.6 μg/mg cells. The “intracellular:extracellular ratio” value is reported as 5.13 fold with HRT-18 cells (HRT-18 cells, 4 h) and 5.34 fold in the series on HRT-18 cells (HRT-18 cells, 24 h). In addition, in the series with HRT-18 cells (HRT-18 cells, 0.5, 5 or 50 μg/mL tylvalosin, within 4 h), the “concentration of tylvalosin accumulated in the cells” value is listed as “at least 585 μg”. Further, in the series with HRT-18 cells (HRT-18 cells, 24 h incubation, compared with 4 h), the “cell:medium concentration ratio” value is on record as “lower”. In the series with PRRSV (setting [4]), the PRRSV spread entry is “inhibited”. Further, in the series on PRRSV (setting [4]), the “initial PRRSV infection (initial site of infection)” value is “inhibited”. The “initial PRRSV infection” value in the series with PRRSV (added 4 hours before infection) and in the series with PRRSV (added at the time of infection) was “inhibited” throughout. Besides, the “effect on raising the pH in the endosomes” value in the series on endosomal pH (acridine orange stained endosomes, any cell line) was “raises the pH in endosomes”. Further, the “effect on endosomal pH” value with endosomal pH (epithelial cells) is reported as “greater effects than tilmicosin”. Moreover, the “inhibition of infection of MDCK cells” value is reported as 76% in series [2] and 92% in series [3].

(Values after patent US9649324B2, “Use of tylvalosin as antiviral agent” (ECO ANIMAL HEALTH LIMITED, priority 2006, dated 2017).)
